From patent US20100311714A1, “1H-IMIDAZO[4,5-c]QUINOLINONE COMPOUNDS” (priority 2009, published 2010)
Like-named read-outs stand apart in the source and are kept apart here.

Key:
PI3K delta = biological target: T1, PI3K delta (Homo sapiens, UniProt O00329); assay: PI3K delta kinase assay (Kinase-Glo luminescence); assay type: biochemical
T1 construct: for the full-length p110-d subunit are generated and fused by overlapping PCR; His tag (C); made in house; host or cells: baculovirus BV1060; Tn5 (Trichoplusia ni) or TiniPro insect cells
T1 sequence (O00329 with tags, fused parts or gaps limits assumed): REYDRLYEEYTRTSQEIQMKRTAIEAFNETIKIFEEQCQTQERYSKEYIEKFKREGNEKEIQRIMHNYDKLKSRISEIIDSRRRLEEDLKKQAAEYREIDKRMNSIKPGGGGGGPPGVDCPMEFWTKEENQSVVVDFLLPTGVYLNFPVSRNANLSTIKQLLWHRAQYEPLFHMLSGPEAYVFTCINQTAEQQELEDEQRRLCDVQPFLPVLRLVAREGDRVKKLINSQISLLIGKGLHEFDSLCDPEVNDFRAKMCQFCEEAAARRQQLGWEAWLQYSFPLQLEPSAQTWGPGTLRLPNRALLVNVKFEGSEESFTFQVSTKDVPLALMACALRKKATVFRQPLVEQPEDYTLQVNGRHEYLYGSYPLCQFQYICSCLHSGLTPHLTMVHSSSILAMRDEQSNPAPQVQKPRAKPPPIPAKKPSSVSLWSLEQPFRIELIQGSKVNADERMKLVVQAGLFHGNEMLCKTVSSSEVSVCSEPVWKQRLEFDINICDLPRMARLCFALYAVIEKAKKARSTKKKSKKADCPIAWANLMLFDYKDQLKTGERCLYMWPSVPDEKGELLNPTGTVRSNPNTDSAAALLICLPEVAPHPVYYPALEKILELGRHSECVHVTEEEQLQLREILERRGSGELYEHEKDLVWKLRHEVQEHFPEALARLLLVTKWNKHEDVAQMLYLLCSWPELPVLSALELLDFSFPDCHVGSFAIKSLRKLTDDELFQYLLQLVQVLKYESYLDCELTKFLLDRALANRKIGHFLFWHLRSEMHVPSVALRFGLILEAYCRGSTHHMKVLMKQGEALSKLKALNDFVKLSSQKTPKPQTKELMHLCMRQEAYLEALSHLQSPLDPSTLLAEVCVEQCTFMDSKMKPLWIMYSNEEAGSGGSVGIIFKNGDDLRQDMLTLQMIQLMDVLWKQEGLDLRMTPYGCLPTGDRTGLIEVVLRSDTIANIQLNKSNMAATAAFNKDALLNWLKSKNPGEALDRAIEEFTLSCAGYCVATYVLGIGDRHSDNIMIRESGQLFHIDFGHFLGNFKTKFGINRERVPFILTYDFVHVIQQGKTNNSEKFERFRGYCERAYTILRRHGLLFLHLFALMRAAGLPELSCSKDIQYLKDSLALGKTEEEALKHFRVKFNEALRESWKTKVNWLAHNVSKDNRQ
Experimental: In a more preferred assay, the kinase reaction is performed in a final volume of 10 μL per well of a low volume non binding CORNING, 384 well black plate (Cat. No. #3676). The final concentrations of ATP and phosphatidyl inositol (PI) in the assay are 1 μM and 10 μg/mL respectively. The reaction is started by the addition of ATP.
The components of the assay are added per well as follows:
50 nL test compounds in 90% DMSO per well, in columns 1-20, 8 concentrations (⅓ and 1/3.33 serial dilution step) in single. • Low control: […] of 90% DMSO in half the wells of columns 23-24 (0.45% in final). • High control: 50 nL of reference compound (e.g. compound of Example 7 in WO 2006/122806) in the other half of columns 23-24 (2.5 μM in final). • Standard: 50 nL of reference compound as just mentioned diluted as the test compounds in columns 21-22 • 20 mL ‘buffer’ are prepared per assay: • 200 μL of 1M TRIS HCl pH7.5 (10 mM in final) • 60 μL of 1M MgCl2 (3 mM in final) • 500 μL of 2M NaCl (50 mM in final) • 100 μL of 10% CHAPS (0.05% in final) • 200 μL of 100 mM DTT (1 mM in final) • 18.94 mL of nanopure water • 10 mL ‘PI’ are prepared per assay: • 200 μL of 1 mg/ml L-alpha-Phosphatidylinositol (Liver Bovine, Avanti Polar Lipids Cat. No. 840042C MW=909.12) prepared in 3% OctylGlucoside (10 μg/ml in final) • 9.8 mL of ‘buffer’ • 10 mL ‘ATP’ are prepared per assay: • 6.7 μL of 3 mM stock of ATP giving a final concentration of 1 μM per well • 10 mL of ‘buffer’ • 2.5 mL of each PI3K construct are prepared per assay in ‘PI’ with the following final concentration: • 10 nM PI3K alfa EMV B1075 • 25 nM beta EMV BV949 • 10 nM delta EMV BV1060 • 150 nM gamma EMV BV950 • 5 μL of ‘PI/PI3K’ are added per well. • 5 μl ‘ATP’ are added per well to start the reaction. • The plates are then incubated at room temperature for 60 minutes (alfa, beta, delta) or 120 minutes (gamma). • The reaction is terminated by the addition of 10 μL Kinase-Glo (Promega Cat. No. #6714). • The assay plates are read after 10 minutes in Synergy 2 reader (BioTek, Vermont USA) with an integration time of 100 milliseconds and sensitivity set to 191. • Output: The High control is around 60′000 counts and the Low control is 30′000 or lower • This luminescence assay gives a useful Z′ ratio between 0.4 and 0.7
PI3Kδ BV-1060 p85(iSH2)-Gly Linker-p110d(Full-Length)-C-Term His Tag
PI3K delta is purified in three chromatographic steps: immobilized metal affinity chromatography on a Ni Sepharose resin (GE Healthcare), gel filtration utilizing a Superdex 200 26/60 column (GE Healthcare), and finally a anion exchange step on a Q-HP column (GE Healthcare). All buffers are chilled to 4° C. and lysis is performed chilled on ice. Column fractionation is performed rapidly at room temperature. Typically frozen insect cells are lysed in a hypertonic lysis buffer and applied to a prepared IMAC column. The resin is washed with 3-5 column volumes of lysis buffer, followed by 3-5 column volumes wash buffer containing 45 mM imidazole, and the target protein is then eluted with a buffer containing 250 mM imidazole. Fractions are analyzed by Coomassie stained SDS-PAGE gels, and fractions containing the target protein are pooled and applied to a prepared GFC column. Fractions from the GFC column are analyzed by Coomassie stained SDS-PAGE gels, and fractions containing the target protein are pooled. The pool from the GFC column is diluted into a low salt buffer and applied to a prepared Q-HP column. The column is washed with low salt buffer until a stable A280 baseline absorbance is achieved, and eluted using a 20 column volume gradient from 0 mM NaCl to 500 mM NaCl. Again, fractions from the Q-HP column are analyzed by Coomassie stained SDS-PAGE gels, and fractions containing the target protein are pooled. The final pool is dialyzed into a storage buffer containing 50% glycerol and stored at −20° C. The final pool is assayed for activity in the phosphoinostitol kinase assay. […]

mTOR = biological target: T2, mTOR (Homo sapiens, UniProt P42345); assay: Biochemical assay for m-TOR by TR-FRET
T2 construct: purchased Invitrogen Corporation (Carlsbad/Calif., USA) PV4753
T2 sequence (P42345 1360-2549 limits assumed): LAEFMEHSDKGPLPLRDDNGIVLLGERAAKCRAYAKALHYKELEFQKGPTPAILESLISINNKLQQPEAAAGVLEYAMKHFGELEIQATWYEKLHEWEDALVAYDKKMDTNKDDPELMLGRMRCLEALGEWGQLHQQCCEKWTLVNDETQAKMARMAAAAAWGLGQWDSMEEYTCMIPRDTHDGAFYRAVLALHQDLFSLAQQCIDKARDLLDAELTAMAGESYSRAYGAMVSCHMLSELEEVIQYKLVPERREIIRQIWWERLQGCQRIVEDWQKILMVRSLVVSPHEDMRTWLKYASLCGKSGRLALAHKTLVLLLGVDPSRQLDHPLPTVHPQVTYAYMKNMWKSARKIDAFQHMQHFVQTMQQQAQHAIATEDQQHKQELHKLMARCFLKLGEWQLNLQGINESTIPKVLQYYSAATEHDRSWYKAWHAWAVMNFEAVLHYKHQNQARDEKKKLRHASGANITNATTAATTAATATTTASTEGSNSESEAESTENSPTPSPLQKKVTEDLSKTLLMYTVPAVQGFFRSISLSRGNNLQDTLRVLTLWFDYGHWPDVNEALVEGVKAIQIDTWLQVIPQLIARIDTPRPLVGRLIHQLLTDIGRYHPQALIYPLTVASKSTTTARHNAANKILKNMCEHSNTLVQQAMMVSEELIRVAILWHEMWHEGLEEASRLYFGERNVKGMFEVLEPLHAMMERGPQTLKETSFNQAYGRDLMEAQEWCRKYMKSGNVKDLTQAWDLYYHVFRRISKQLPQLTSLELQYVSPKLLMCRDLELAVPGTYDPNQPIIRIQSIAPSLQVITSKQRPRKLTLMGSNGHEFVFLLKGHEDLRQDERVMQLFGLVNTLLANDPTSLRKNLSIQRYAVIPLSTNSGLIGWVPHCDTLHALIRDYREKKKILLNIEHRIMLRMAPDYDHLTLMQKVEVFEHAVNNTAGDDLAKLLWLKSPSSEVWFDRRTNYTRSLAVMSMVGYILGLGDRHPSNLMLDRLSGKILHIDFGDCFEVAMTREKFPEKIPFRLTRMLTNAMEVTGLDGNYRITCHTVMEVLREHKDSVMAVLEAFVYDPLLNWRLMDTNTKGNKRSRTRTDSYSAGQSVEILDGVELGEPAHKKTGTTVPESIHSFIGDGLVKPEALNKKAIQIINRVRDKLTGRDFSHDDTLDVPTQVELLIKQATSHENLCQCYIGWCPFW
Experimental: Biochemical Assay for m-TOR by TR-FRET.
Assay components are purchased from Invitrogen Corporation (Carlsbad/Calif., USA): GFP-4EBP1 (Cat. No. PV4759), Tb3+-α-p4EBP1 [pThr46] Antibody (Cat. No. PV4757), proprietary TR-FRET dilution buffer (Cat. No. PV3574), mTOR protein (Cat. No. PV4753).
50 nL of compound dilutions (final concentration of 10, 3.0, 1.0, 0.3, 0.1, 0.03, 0.01 and 0.003 μM) are dispensed onto black 384-well low volume non-binding polystyrene (Cat. No. NBS#3676, Corning, Lowell/Mass., USA). Then 5 μL of ATP (8 μM final concentration) and GFP-4EBP1 (400 nM final concentration) with 5 μL mTOR proteins (0.5 nM final concentration) are incubated at rt. The standard reaction buffer for the TR-FRET mTOR assay contained 50 mM HEPES pH 7.5, 10 mM MnCl2, 50 mM NaCl, 1 mM EGTA, 1 mM DTT. Reactions were stopped with 10 μL of a mixture of EDTA containing the Tb3+-α-p4EBP1[pT46] detection Ab (0.5 nM) in TR-FRET dilution buffer (proprietary to IVG). Plates are read 15 mins later in a Synergy2 reader using an integration time of 0.2 seconds and a delay of 0.1 seconds. Control for the 100% inhibition of the kinase reaction is performed by replacing the mTOR kinase by the standard reaction buffer. The control for the 0% inhibition is given by the solvent vehicle of the compounds (90% DMSO in H2O). A standard compound is used as a reference compound and included in all assay plates in the form of 16 dilution points in duplicate.

IC50 (PI3K delta; read-out: PI3Kdelta/IC50)	IC50 (mTOR; read-out: mTOR/IC50)	IC50 (PI3K delta; read-out: EPK_PI3Kdelta/IC50)	IC50 (mTOR; read-out: EPK_mTOR/IC50)	Structure (SMILES)
32 nM	74 nM			COc1ccc(-c2ccc3ncc4c(c3c2)n(-c2cccnc2C)c(=O)n4C)cn1 [Example 2.12, 8-(6-Methoxy-pyridin-3-yl)-3-methyl-1-(2-methyl-pyridin-3-yl)-1,3-dihydro-imidazo[4,5-c]quinolin-2-one]
37 nM	23 nM			COc1ccc(-c2ccc3ncc4c(c3c2)n(-c2cccnc2C)c(=O)n4C)cc1OC [Example 2.9, 8-(3,4-Dimethoxy-phenyl)-3-methyl-1-(2-methyl-pyridin-3-yl)-1,3-dihydro-imidazo[4,5-c]quinolin-2-one]
		6 nM	92 nM	Cc1nc(C(F)(F)F)ccc1-n1c(=O)n(C)c2cnc3ccc(-c4cncc(C(C)(C)O)c4)cc3c21 [Example 33.1, 8-[5-(1-Hydroxy-1-methyl-ethyl)-pyridin-3-yl]-3-methyl-1-(2-methyl-6-trifluoromethyl-pyridin-3-yl)-1,3-dihydro-imidazo[4,5-c]quinolin-2-one]
66 nM				CCOc1ccc(-c2ccc3ncc4c(c3c2)n(-c2ccc(N3CCNCC3)nc2OC)c(=O)n4C)cn1 [Example 9.1, 8-(6-Ethoxy-pyridin-3-yl)-1-(2-methoxy-6-piperazin-1-yl-pyridin-3-yl)-3-methyl-1,3-dihydro-imidazo[4,5-c]quinolin-2-one]
12 nM	15 nM			Cn1c(=O)n(-c2cccnc2F)c2c3cc(-c4cnc(N)c(C(F)(F)F)c4)ccc3ncc21 [Example 6.2, 8-(6-Amino-5-trifluoromethyl-pyridin-3-yl)-1-(2-fluoro-pyridin-3-yl)-3-methyl-1,3-dihydro-imidazo[4,5-c]quinolin-2-one]
59 nM	104 nM			Cc1ncccc1-n1c(=O)n(C)c2cnc3ccc(-c4ccc(CO)nc4)cc3c21 [Example 2.6, 8-(6-Hydroxymethyl-pyridin-3-yl)-3-methyl-1-(2-methyl-pyridin-3-yl)-1,3-dihydro-imidazo[4,5-c]quinolin-2-one]
58 nM	166 nM			CCOc1ncc(-c2ccc3ncc4c(c3c2)n(-c2cccnc2C)c(=O)n4C)cn1 [Example 2.5, 8-(2-Ethoxy-pyrimidin-5-yl)-3-methyl-1-(2-methyl-pyridin-3-yl)-1,3-dihydro-imidazo[4,5-c]quinolin-2-one]
		27 nM	21 nM	CCNc1ncc(-c2ccc3ncc4c(c3c2)n(-c2ccc(C(C)(C)O)nc2C)c(=O)n4C)cn1 [Example 31.7, 8-(2-Ethylamino-pyrimidin-5-yl)-1-[6-(1-hydroxy-1-methyl-ethyl)-2-methyl-pyridin-3-yl]-3-methyl-1,3-dihydro-imidazo[4,5-c]quinolin-2-one]
20 nM	19 nM			CNc1ccc(-c2ccc3ncc4c(c3c2)n(-c2cccnc2C)c(=O)n4C)cn1 [Example 2.13, 3-Methyl-8-(6-methylamino-pyridin-3-yl)-1-(2-methyl-pyridin-3-yl)-1,3-dihydro-imidazo[4,5-c]quinolin-2-one]
		11 nM	15 nM	COc1ncc(-c2ccc3ncc4c(c3c2)n(-c2ccc(N3CC[C@H](O)C3)nc2C)c(=O)n4C)c(OC)n1 [Example 32.3, 8-(2,4-Dimethoxy-pyrimidin-5-yl)-1-[6-((S)-3-hydroxy-pyrrolidin-1-yl)-2-methyl-pyridin-3-yl]-3-methyl-1,3-dihydro-imidazo[4,5-c]quinolin-2-one]
15 nM				COc1nc(N2CCNCC2)ccc1-n1c(=O)n(C)c2cnc3ccc(-c4cnc(N)c(C(F)(F)F)c4)cc3c21 [Example 9.2, 8-(6-Amino-5-trifluoromethyl-pyridin-3-yl)-1-(2-methoxy-6-piperazin-1-yl-pyridin-3-yl)-3-methyl-1,3-dihydro-imidazo[4,5-c]quinolin-2-one]
401 nM				CCOc1ccc(-c2ccc3ncc4c(c3c2)n(-c2cnccc2C)c(=O)n4C)cn1 [Example 4.2, 8-(6-Ethoxy-pyridin-3-yl)-3-methyl-1-(4-methyl-pyridin-3-yl)-1,3-dihydro-imidazo[4,5-c]quinolin-2-one]
583 nM				Cc1cccnc1-n1c(=O)n(C)c2cnc3ccc(-c4ccc(CO)nc4)cc3c21 [Example 3.9, 8-(6-Hydroxymethyl-pyridin-3-yl)-3-methyl-1-(3-methyl-pyridin-2-yl)-1,3-dihydro-imidazo[4,5-c]quinolin-2-one]
	331 nM			CNC(=O)c1ccc(-c2ccc3ncc4c(c3c2)n(-c2ncccc2C)c(=O)n4C)cc1 [Example 3.5, N-Methyl-4-[3-methyl-1-(3-methyl-pyridin-2-yl)-2-oxo-2,3-dihydro-1H-imidazo[4,5-c]quinolin-8-yl]-benzamide]
851 nM				CCOc1ncc(-c2ccc3ncc4c(c3c2)n(-c2ncccc2C)c(=O)n4C)cn1 [Example 3.1, 8-(2-Ethoxy-pyrimidin-5-yl)-3-methyl-1-(3-methyl-pyridin-2-yl)-1,3-dihydro-imidazo[4,5-c]quinolin-2-one]
406 nM				Cc1ccncc1-n1c(=O)n(C)c2cnc3ccc(-c4ccc(CO)nc4)cc3c21 [Example 4.1, 8-(6-Hydroxymethyl-pyridin-3-yl)-3-methyl-1-(4-methyl-pyridin-3-yl)-1,3-dihydro-imidazo[4,5-c]quinolin-2-one]
151 nM				COc1ccc(-c2ccc3ncc4c(c3c2)n(-c2ncccc2C)c(=O)n4C)cc1OC [Example 3.10, 8-(3,4-Dimethoxy-phenyl)-3-methyl-1-(3-methyl-pyridin-2-yl)-1,3-dihydro-imidazo[4,5-c]quinolin-2-one]
